What was measured:
TNFα production = assay: Inhibitory action on production of TNFα (LPS-stimulated human peripheral blood monocyte fraction, ELISA); format: cell-based; details: LPS-stimulated human peripheral blood monocytes, incubation 18 to 24 hours, read-out: TNF^α Inhibition IC50
Experimental: Inhibitory Action on Production of TNF: Human peripheral blood was collected in […] and centrifuged (1000 rpm, 10 minutes, at room temperature) to remove platelet rich plasma, and then the blood sample was mixed with Hank's balanced salt solution (HBSS) (with an equal volume to the removed plasma) containing penicillin (100 units/ml) and streptomycin (100 μg/ml) (referred to hereinafter as “p, s”). Ficoll-paque (Pharmacia) with an volume of 3/5 relative to the sample mixture was layered on the lower layer and centrifuged at 1500 rpm for 30 minutes at room temperature, and the monocyte nucleus fraction was collected. The resulting monocyte nucleus fraction was washed twice with p, s-containing HBSS and prepared as a cell float at a cell density of 2-4×10^6 cells/ml in p, s-containing RPMI1640 (containing 10% FCS). 400 μl of the prepared cell float was added to a 48-wells culture plate, and 50 μl LPS (100 ng/ml of saline) and 50 μl of each of compound solutions prepared at various concentrations were added to each well, followed by incubation at 37° C. in a 5% CO2 mixed air. After incubation for 18 to 24 hours, the incubated buffer was separated, and TNFα thus released from the cells was measured by an ELISA kit (Amasham).
The inhibitory action of the compound on production of TNFα was determined in terms of IC50 by plotting the concentrations of the compound and the amount of produced TNFα (%relative to the control) on semilogarithmic graph paper. The control (100%) for the amount of TNFα produced was obtained by subtracting the amount of TNFα produced in the (basal) group where neither LPS nor the compound was added, from the amount of TNFα produced in the (control) group where the compound was not added.
After the compound was dissolved at a concentration of […] in DMSO solution containing the compound at a concentration which was 1000 times as high as the final concentration, and then the solution was diluted with RPMI1640 containing 10% FCS and p,s, to prepare a solution containing the compound at a concentration which was 10 times as high as the final concentration. In place of the compound solution, RPMI1640 (1% DMSO, 10% FCS) containing p, s was added to the control group basal group. In place of the LPS solution, physiological saline was added to the basal group.

PDE4D = PDE4D (Homo sapiens, UniProt Q08499); assay: Inhibitory action on PDE4 (homogenate of BHK cells expressing cloned human PDE4D, [3H]-cAMP hydrolysis); format: biochemical; details: average in triplicate measurements; 1 μM [3H]-cAMP substrate; read-out: PDE4 Inhibition IC50
Experimental: Inhibitory Action on PDE4: PDE4D was cloned from human placental mRNA by PCR techniques, and cDNA after an alternative spliced site (Mol. Cell. Biol., 13, 6558, 1993) was expressed in BHK cells. Two clones of BHK cells expressing PDE4 activity which was 100 or more times as high as endogenous PDE4 activity were obtained, and one of the clones was cultured in a large amount, and its homogenate was used as an enzyme source of PDE4.
50 mM Tris-HCl (pH 8.0), 0.1 mM EGTA, 0.1 mM MgCl2, 1 μM [^3H]-cGMP (100,000 dpm/tube) or 1 μM [^3H]-cAMP (100,000 dpm/tube) was added to the above homogenate, and 0.2 ml of the mixture was incubated at 30° C. for 10 to 20 minutes in the presence or absence of a test compound. The enzyme reaction was stopped by incubating the mixture at 95° C. for 1.5 minutes, and after cooling on ice, 50 μl nucleotidase (10 units/ml) was added thereto and incubated at 30° C. for 10 minutes. 550 μl of AG1-X2 resin slurry (H2O:resin=2:1) was added to the reaction mixture, then left at 4° C. for 10 minutes and centrifuged (10,000 rpm, 2.5 minutes, 4° C.), and 450 μl of the supernatant was measured for radioactivity.
The activity was compared in terms of IC50 (concentration of the compound at which 50% of the enzyme activity is inhibited) IC50 was determined by plotting of the concentration of cAMP as the substrate and the concentration of the compound on logarithmic graph paper. The results shown in Table 1 are the average in triplicate measurements. The test compound was first dissolved in DMSO and then diluted with the above-mentioned buffer for use.

ZDP rat = assay: Blood sugar-depressing action (ZDP rat); format: in vivo; details: for Blood sugar level, Before the administration: baseline before the administration of the test compound; for Blood sugar level, After the continuous administration for 1 week / Glucose level relative to that (=100%) before the administration, after the continuous administration for 1 week: oral, once every day for 1 week; for Blood sugar level, After the continuous administration for 1 week: 4 hours fast, tail vein blood; for Glucose level relative to that (=100%) before the administration, after the continuous administration for 1 week: value in parentheses
Experimental: Blood Sugar-Depressing Action (ZDP rat): A test compound was suspended in 0.5% MC, and the suspension was orally administered to an animal once every day for 1 week. After the administration, the rat was allowed to fast for 4 hours, and blood was collected from the tail vein, added immediately to 0.6 M HClO4 (0.6 M HClO4=1:9), and centrifuged to give a supernatant which was then measured for glucose level by Glocose CII Test Wako Kit (Wako Pure Chemical Industries, Ltd., JP). In the table, values in the parentheses under the blood sugar level (mg/dl) indicate glucose levels relative to those (=100%) before the administration of the test compound.

Sequence of PDE4D (Q08499 303-809 limits assumed): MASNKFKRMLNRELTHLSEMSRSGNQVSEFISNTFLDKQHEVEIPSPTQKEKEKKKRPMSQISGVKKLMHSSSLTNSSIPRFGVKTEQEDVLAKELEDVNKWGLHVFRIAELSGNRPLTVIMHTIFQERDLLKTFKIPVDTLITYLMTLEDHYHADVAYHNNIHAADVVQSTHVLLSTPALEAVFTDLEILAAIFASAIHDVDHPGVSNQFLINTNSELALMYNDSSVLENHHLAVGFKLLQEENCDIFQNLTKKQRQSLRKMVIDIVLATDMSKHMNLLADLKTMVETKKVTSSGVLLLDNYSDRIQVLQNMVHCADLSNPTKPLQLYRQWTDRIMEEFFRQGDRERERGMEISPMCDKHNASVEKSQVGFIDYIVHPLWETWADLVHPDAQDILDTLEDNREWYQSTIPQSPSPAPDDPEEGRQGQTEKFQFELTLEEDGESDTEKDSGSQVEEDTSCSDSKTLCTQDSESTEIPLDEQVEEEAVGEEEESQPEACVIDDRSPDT

Structure (SMILES)	IC50 (TNFα production)	IC50 (PDE4D)	melting point	Blood sugar level, Before the administration (ZDP rat)	Blood sugar level, After the continuous administration for 1 week (ZDP rat)	Glucose level relative to that (=100%) before the administration, after the continuous administration for 1 week (ZDP rat)
CNc1nc(-c2cccc(NC(=O)c3ccncc3)c2)c2cc(OC)c(OC)cc2n1 [Example 2, 6,7-Dimethoxy-2-methylamino-4-[3-(4-pyridinecarbonylamino)phenyl]quinazoline]	4.7 nM	8.5 nM	228 to 230 °C	–	–	–
CNc1nc(-c2cccc(NC(=O)c3ccc(OC)c(OC)c3)c2)c2cc(OC)c(OC)cc2n1 [Example 14, 6,7-Dimethoxy-4-[3-(3,4-dimethoxybenzoylamino)phenyl]-2-methylaminoquinazoline]	1.6 nM	4 nM	128 to 130 °C	–	–	–
CNc1nc(-c2cccc(NC(=O)c3ccc(OC)c(Cl)c3)c2)c2cc(OC)c(OC)cc2n1 [Example 18, 4-[3-(3-Chloro-4-methoxybenzoylamino)phenyl]-6,7-dimethoxy-2-methylaminoquinazoline]	3.3 nM	1.4 nM	130 to 132 °C	–	–	–
CNc1ccc(C(=O)Nc2cccc(-c3nc(NC)nc4cc(OC)c(OC)cc34)c2)cn1 [Example 32, 6,7-Dimethoxy-2-methylamino-4-[3-(6-methylaminonicotinoylamino)phenyl]quinazoline]	2.3 nM	2.6 nM	193 to 195 °C	478.5 ± 7.3 mg/dL	349.3 ± 44.3 mg/dL	(73.0) %
CNc1nc(-c2cccc(-c3cnc4ccccc4c3)c2)c2cc(OC)c(OC)cc2n1 [Example 49, 6,7-Dimethoxy-2-methylamino-4-[3-(3-quinolyl)phenyl]quinazoline]	1.7 nM	1.1 nM	218 to 220 °C	–	–	–
CCOc1cc2nc(NC)nc(-c3cccc(-c4cncc([S+](C)[O-])c4)c3)c2cc1OCC (centres unmarked) [Example 62]	–	1.9 nM	188 to 190 °C	478.6 ± 24.0 mg/dL	369.1 ± 37.3 mg/dL	(77.1) %
